Experiments:
Format in all cases: cell-based
A2780 = assay: MTT cytotoxicity test, A2780; details: 24 h
Text: (§1) In this test, […] present in the cells converts the soluble tetrazolium salt (3-4,5-dimethylthiazol-2-yl)-2,5-diphenyltetrazolium bromide) into a reduced form. The reaction yields water-insoluble purple crystalline formazan. The number of crystals formed depends on the enzyme activity so that it is directly proportional to the number of viable cells in the sample. Spectrophotometric measurement requires the use of an organic solvent to dissolve the crystals obtained (isopropanol). The change in colour intensity is measured by spectrophotometry at 570 nm wavelength. The test was performed for a number of dilutions (9) of nanoparticle solutions containing the tested anthracycline. The baseline concentration of nanoparticles for MTT tests was 2.5 mg of nanoparticles/ml. […] The study was also performed for drug-free nanoparticles (the carrier itself was obtained similarly to the nanoparticles with the drug). Cells not exposed to toxic substances were used as a control for toxicity studies.
(§2) After reaching 85-90% confluence, the cells were trypsinised using a 0.25% trypsin solution. The cells were then centrifuged (1200 rpm, 5 min.) and suspended in a culture medium suitable for a particular cell line. […] The cells were plated at a concentration of 1000 cells/100 μl of medium per culture well (96-well plates). The prepared plates were incubated (37° C./5% CO2/22 h to 26 h). Subsequently, the culture medium was replaced with a fresh one (100 μl) containing the appropriate concentration of the tested nanoparticles and set aside for 24 h (37° C./5% CO2). After the lapse of the test time, the medium was removed and replaced with 50 μl of an MTT reagent solution at a concentration of 1 mg/ml. The plate was incubated for 2 hours (37° C./5% CO2). Subsequently, the MTT solution was removed, and 100 μl of isopropanol was added. […] The mean value of absorbance read OD570 of the cells not exposed to a toxic agent (control) should be above 0.7 [see literature item 206].
(§3) A decrease in the number of viable cells causes a decrease in metabolic activity in the sample. This reduction directly correlates with the amount of blue and purple formazan formed, monitored basing on the optical density at 570 nm. The following equation (C.1) is used to calculate viability reduction compared to control:
(§4) where: • OD570e is the mean value of the measured absorbance of the test samples; • OD570b is the mean value of the measured absorbance of the control.
(§5) The results obtained were statistically analysed using the Dixon Q test.

COLO 205 = assay: MTT cytotoxicity test, COLO 205; details: 24 h
Text: as §1, §2, §3, §4, §5

[1] = MTT cytotoxicity test, HeLa; details: human, HeLa cells; for viability at 24 h, 125000 ng/ml NPs (pure drug equimolar): 1.25E+05 ng/ml NPs (pure drug equimolar); for viability at 24 h, 25000 ng/ml NPs (pure drug equimolar): 2.50E+04 ng/ml NPs (pure drug equimolar); for viability at 24 h, 50000 ng/ml NPs (pure drug equimolar): 5.00E+04 ng/ml NPs (pure drug equimolar)
Text: (§6) In this test, […] present in the cells converts the soluble tetrazolium salt (3-4,5-dimethylthiazol-2-yl)-2,5-diphenyltetrazolium bromide) into a reduced form. The reaction yields water-insoluble purple crystalline formazan. The number of crystals formed depends on the enzyme activity so that it is directly proportional to the number of viable cells in the sample. Spectrophotometric measurement requires the use of an organic solvent to dissolve the crystals obtained (isopropanol). The change in colour intensity is measured by spectrophotometry at 570 nm wavelength. The test was performed for a number of dilutions (9) of nanoparticle solutions containing the tested anthracycline. The baseline concentration of nanoparticles for MTT tests was 2.5 mg of nanoparticles/ml. The results were compared to cytotoxicity results obtained for pure drugs with equimolar drug concentration (equal to the concentration encapsulated in nanoparticles). The study was also performed for drug-free nanoparticles (the carrier itself was obtained similarly to the nanoparticles with the drug). Cells not exposed to toxic substances were used as a control for toxicity studies.
(§7) After reaching 85-90% confluence, the cells were trypsinised using a 0.25% trypsin solution. The cells were then centrifuged (1200 rpm, 5 min.) and suspended in a culture medium suitable for a particular cell line. […] The cells were plated at a concentration of 1000 cells/100 μl of medium per culture well (96-well plates). The prepared plates were incubated (37° C./5% CO2/22 h to 26 h). Subsequently, the culture medium was replaced with a fresh one (100 μl) containing the appropriate concentration of the tested nanoparticles and set aside for 24 h (37° C./5% CO2). After the lapse of the test time, the medium was removed and replaced with 50 μl of an MTT reagent solution at a concentration of 1 mg/ml. The plate was incubated for 2 hours (37° C./5% CO2). Subsequently, the MTT solution was removed, and 100 μl of isopropanol was added. After shaking the plate on the shaker for 2 minutes, the results for 570 nm wavelength were read (reference value of 650 nm). The mean value of absorbance read OD570 of the cells not exposed to a toxic agent (control) should be above 0.7 [see literature item 206].
as §3, §4, §5

HeLa cell line = assay: MTT cytotoxicity test, HeLa; details: 24 h
Text: as §6, §7, §3, §4, §5

OVCAR-3 = assay: MTT cytotoxicity test, OVCAR-3; details: 24 h
Text: as §1, §2, §3, §4, §5

PANC-1 = assay: MTT cytotoxicity test, PANC-1; details: 24 h
Text: as §1, §2, §3, §4, §5

[2] = A2780, 1.25E+04 ng/ml NPs (pure drug equimolar)
[3] = A2780, 1.25E+05 ng/ml NPs (pure drug equimolar)
[4] = A2780, 1.25E+06 ng/ml NPs (pure drug equimolar)
[5] = A2780, 2.50E+04 ng/ml NPs (pure drug equimolar)
[6] = A2780, 2.50E+05 ng/ml NPs (pure drug equimolar)
[7] = A2780, 2.50E+06 ng/ml NPs (pure drug equimolar)
[8] = A2780, 5.00E+03 ng/ml NPs (pure drug equimolar)
[9] = A2780, 5.00E+04 ng/ml NPs (pure drug equimolar)
[10] = A2780, 5.00E+05 ng/ml NPs (pure drug equimolar)
[11] = Colo205, 1.25E+04 ng/ml NPs (pure drug equimolar)
[12] = Colo205, 1.25E+05 ng/ml NPs (pure drug equimolar)
[13] = Colo205, 1.25E+06 ng/ml NPs (pure drug equimolar)
[14] = Colo205, 2.50E+04 ng/ml NPs (pure drug equimolar)
[15] = Colo205, 2.50E+05 ng/ml NPs (pure drug equimolar)
[16] = Colo205, 2.50E+06 ng/ml NPs (pure drug equimolar)
[17] = Colo205, 5.00E+03 ng/ml NPs (pure drug equimolar)
[18] = Colo205, 5.00E+04 ng/ml NPs (pure drug equimolar)
[19] = Colo205, 5.00E+05 ng/ml NPs (pure drug equimolar)
[20] = 1.25E+04 ng/ml NPs (pure drug equimolar)
[21] = 1.25E+06 ng/ml NPs (pure drug equimolar)
[22] = 2.50E+05 ng/ml NPs (pure drug equimolar)
[23] = 2.50E+06 ng/ml NPs (pure drug equimolar)
[24] = 5.00E+03 ng/ml NPs (pure drug equimolar)
[25] = 5.00E+05 ng/ml NPs (pure drug equimolar)
[26] = OVCAR3, 1.25E+05 ng/ml NPs (pure drug equimolar)
[27] = OVCAR3, 1.25E+06 ng/ml NPs (pure drug equimolar)
[28] = OVCAR3, 2.50E+04 ng/ml NPs (pure drug equimolar)
[29] = OVCAR3, 2.50E+05 ng/ml NPs (pure drug equimolar)
[30] = OVCAR3, 2.50E+06 ng/ml NPs (pure drug equimolar)
[31] = OVCAR3, 5.00E+04 ng/ml NPs (pure drug equimolar)
[32] = OVCAR3, 5.00E+05 ng/ml NPs (pure drug equimolar)
[33] = PANC1, 1.25E+05 ng/ml NPs (pure drug equimolar)
[34] = PANC1, 1.25E+06 ng/ml NPs (pure drug equimolar)
[35] = PANC1, 2.50E+04 ng/ml NPs (pure drug equimolar)
[36] = PANC1, 2.50E+05 ng/ml NPs (pure drug equimolar)
[37] = PANC1, 2.50E+06 ng/ml NPs (pure drug equimolar)
[38] = PANC1, 5.00E+03 ng/ml NPs (pure drug equimolar)
[39] = PANC1, 5.00E+05 ng/ml NPs (pure drug equimolar)

For `COc1cccc2c1C(=O)c1c(O)c3c(c(O)c1C2=O)C[C@@](O)(C(C)=O)C[C@@H]3O[C@H]1C[C@H](N)[C@H](O)[C@H](C)O1` [Dau, daunorubicin], the Average viability (A2780; [2]) was 0.540%, the Average viability (A2780; [3]) was 18.312% and the Average viability (A2780; [4]) was 60.422%. For the same molecule, the Average viability (A2780; [5]) was 3.689%, the Average viability (A2780; [6]) was 35.542% and the Average viability (A2780; [7]) was 54.259%. The Average viability (A2780; [8]) was 0.295%, the Average viability (A2780; [9]) was 11.600% and the Average viability (A2780; [10]) was 60.621%. The Average viability (COLO 205; [11]) was 34.20%, the Average viability (COLO 205; [12]) was 3.75% and the Average viability (COLO 205; [13]) was 5.07%. It also gave an Average viability (COLO 205; [14]) of 19.17%, an Average viability (COLO 205; [15]) of 3.47% and an Average viability (COLO 205; [16]) of 30.89%. It also gave an Average viability (COLO 205; [17]) of 30.89%, an Average viability (COLO 205; [18]) of 4.46% and an Average viability (COLO 205; [19]) of 2.93%. It also gave a viability at 24 h, 125000 ng/ml NPs (pure drug equimolar) [1] of 7.89%, a viability at 24 h, 25000 ng/ml NPs (pure drug equimolar) [1] of 2.11% and a viability at 24 h, 50000 ng/ml NPs (pure drug equimolar) [1] of 4.14%. The Average viability (HeLa cell line; [20]) was 2.851%, the Average viability (HeLa cell line; [21]) was 107.342% and the Average viability (HeLa cell line; [22]) was 7.579%. The Average viability (HeLa cell line; [23]) was 111.366%, the Average viability (HeLa cell line; [24]) was 2.054% and the Average viability (HeLa cell line; [25]) was 28.287%. It also gave an Average viability (OVCAR-3; OVCAR3, 1.25E+04 ng/ml NPs (pure drug equimolar)) of 3.616%, an Average viability (OVCAR-3; [26]) of 59.635% and an Average viability (OVCAR-3; [27]) of 94.253%. It also gave an Average viability (OVCAR-3; [28]) of 43.386%, an Average viability (OVCAR-3; [29]) of 71.147% and an Average viability (OVCAR-3; [30]) of 99.822%. It also gave an Average viability (OVCAR-3; OVCAR3, 5.00E+03 ng/ml NPs (pure drug equimolar)) of 1.330%, an Average viability (OVCAR-3; [31]) of 52.550% and an Average viability (OVCAR-3; [32]) of 120.518%. The Average viability (PANC-1; [33]) was 48.79%, the Average viability (PANC-1; [34]) was 1.02% and the Average viability (PANC-1; [35]) was 61.24%. The Average viability (PANC-1; [36]) was 33.21%, the Average viability (PANC-1; [37]) was 95.12% and the Average viability (PANC-1; [38]) was 95.12%. For the same molecule, the Average viability (PANC-1; PANC1, 5.00E+04 ng/ml NPs (pure drug equimolar)) was 56.67% and the Average viability (PANC-1; [39]) was 0.54%.
Molecule `COc1cccc2c1C(=O)c1c(O)c3c(c(O)c1C2=O)C[C@@](O)(C(=O)CO)C[C@@H]3O[C@H]1C[C@H](N)[C@@H](O)[C@H](C)O1` [Epi, epirubicin] has an Average viability (A2780; [2]) of 90.784%, an Average viability (A2780; [3]) of 69.996% and an Average viability (A2780; [4]) of 14.869%. The Average viability (A2780; [5]) was 89.24%, the Average viability (A2780; [6]) was 58.252% and the Average viability (A2780; [7]) was 3.102%. For the same molecule, the Average viability (A2780; [8]) was 95.203%, the Average viability (A2780; [9]) was 83.629% and the Average viability (A2780; [10]) was 41.752%. The Average viability (COLO 205; [11]) was 63.431%, the Average viability (COLO 205; [12]) was 55.748% and the Average viability (COLO 205; [13]) was 5.063%. The Average viability (COLO 205; [14]) was 66.212%, the Average viability (COLO 205; [15]) was 49.549% and the Average viability (COLO 205; [16]) was 2.239%. The Average viability (COLO 205; [17]) was 83.936%, the Average viability (COLO 205; [18]) was 61.427% and the Average viability (COLO 205; [19]) was 23.946%. It also gave a viability at 24 h, 125000 ng/ml NPs (pure drug equimolar) [1] of 12.7%, a viability at 24 h, 25000 ng/ml NPs (pure drug equimolar) [1] of 72.8% and a viability at 24 h, 50000 ng/ml NPs (pure drug equimolar) [1] of 17%. It also gave an Average viability (HeLa cell line; [20]) of 98.38%, an Average viability (HeLa cell line; [21]) of 3.6% and an Average viability (HeLa cell line; [22]) of 14.93%. It also gave an Average viability (HeLa cell line; [23]) of 4.21%, an Average viability (HeLa cell line; [24]) of 100.18% and an Average viability (HeLa cell line; [25]) of 7.96%. It also gave an Average viability (OVCAR-3; [26]) of 91.668%, an Average viability (OVCAR-3; [27]) of 58.803% and an Average viability (OVCAR-3; [28]) of 99.208%. It also gave an Average viability (OVCAR-3; [29]) of 88.222%, an Average viability (OVCAR-3; [30]) of 33.266% and an Average viability (OVCAR-3; [31]) of 92.151%. The Average viability (OVCAR-3; [32]) was 75.986%, the Average viability (PANC-1; PANC1, 1.25E+04 ng/ml NPs (pure drug equimolar)) was 94.813% and the Average viability (PANC-1; [33]) was 82.872%. It also gave an Average viability (PANC-1; [34]) of 27.965%, an Average viability (PANC-1; [35]) of 99.155% and an Average viability (PANC-1; [36]) of 79.499%. It also gave an Average viability (PANC-1; [37]) of 5.339%, an Average viability (PANC-1; [38]) of 97.954% and an Average viability (PANC-1; [39]) of 54.929%.
